Here are results for 19 compounds from US20050277630A1, “Antibacterial agents” (priority 2003, published 2005).

≈ marks a conversion by molar mass, not a printed value.

The test system of one data set is S pyogenes C203. Put plainly: Antibacterial assay (Test A), standard microtitration, MIC. In kind it is cell-based. The following applies: Gram Positive Bacteria; strain C203. The method, then:
(§1) The compounds of the present invention were tested against an assortment of Gram-negative and Gram-positive organisms using standard microtitration techniques (Cohen et. al., Antimicrob., 1985; 28: 766; Heifetz, et. al., Antimicrob., 1974; 6: 124).

The next data set relates to E. faecalis MGH-2. The data set is described as above. In kind it is cell-based. The following applies: Gram Positive Bacteria, strain MGH-2; for MIC: Enterococcus faecalis, MGH2. The method, then: as §1
For the next data set, the system named is S. aureus UC-76. Described as above. In kind it is cell-based. The following applies: Gram Positive Bacteria, strain UC-76; for MIC: Staphylococcus aureus, UC76. The method, then:
as §1

The next data set concerns H. influenzae HI3542. The description is as above. Particulars: Gram Negative Bacteria, strain HI3542; for MIC: Haemophilus influenzae. The class given is cell-based. The method, then: as §1
The subject of another data set is E. coli Tol C. Described as above. The class given is cell-based. The following applies: for MIC: Escherichia coli, read-out: MIC E. coli Tol C; for MIC E. coli Tol C: Gram Negative Bacteria, strain Tol C. The procedure: as §1
For a further data set, the system named is M. catarrhalis BC3534. The data set is described as above. In kind it is cell-based. Particulars: strain BC3534; for MIC: Moraxella catarrhalis, BC3534, Gram Negative Bacteria; for MIC M. catarrhalis BC3534: Gram Negative Bacteria. The method, then:
as §1

In the case of `CC(=O)NC[C@H]1CN(c2ccc3c(c2)CCSC(=CN(C)C)C3=O)C(=O)O1`, the melting point fell in the range of 221 to 222 °C.

In the case of `CC(=O)NC[C@H]1CN(c2ccc3c(c2)CCSc2cn[nH]c2-3)C(=O)O1`, the melting point is 186 to 187 °C.

Take `CC(=O)NC[C@H]1CN(c2ccc3c(c2)CCSc2cnc(N)nc2-3)C(=O)O1`: the melting point is 190 to 191 °C (dec.).

In turn, `CC(=O)NC[C@H]1CN(c2ccc3c(c2)CCS(=O)(=O)C(=CN(C)C)C3=O)C(=O)O1` had a melting point of 261 to 263 °C.

For `CC(=O)NC[C@H]1CN(c2ccc3c(c2)CCS(=O)(=O)c2cn[nH]c2-3)C(=O)O1`, the melting point was in the range of 292 to 293 °C.

In the case of `CC(=O)NC[C@H]1CN(c2ccc3c(c2)CCS(=O)(=O)c2cnc(N)nc2-3)C(=O)O1`, the melting point is 211 to 213 °C (dec.).

In the case of `CC(=O)NC[C@H]1CN(c2ccc3c(c2)CCS(=O)(=O)c2cnoc2-3)C(=O)O1`, the melting point fell in the range of 211 to 212 °C.

Regarding `CC(=O)NC[C@H]1CN(c2ccc3c(c2)CCSCC3=O)C(=O)O1`, the melting point lay in the range of 232 to 233 °C.

Compound `CC(=O)NC[C@H]1CN(c2ccc3c(c2)CCNC(=O)N3)C(=O)O1` registered a melting point of 177 to 178 °C.

Regarding `CC(=O)NC[C@H]1CN(c2ccc3c(c2)CCC(N)C(=O)N3)C(=O)O1` (stereo partly drawn), the melting point was > 160 °C (dec.).

Consider `CC(=O)NC[C@H]1CN(c2ccc3c(c2)OCCc2c(-c4ccc(F)cc4)n[nH]c2-3)C(=O)O1`, for which the MIC against S pyogenes C203 came to 0.5 µg/mL (≈ 1.15 µM); against E. faecalis MGH-2 it was 1 µg/mL (≈ 2.29 µM); against S. aureus UC-76, 1 µg/mL (≈ 2.29 µM).

Regarding `CC(=O)NC[C@H]1CN(c2ccc3c(c2)OCCc2c(-c4ccncc4)n[nH]c2-3)C(=O)O1` [Example 22, (S)—N-[2-Oxo-3-(3-pyridin-4-yl-4,5-dihydro-1H-6-oxa-1,2-diaza-benzo[e]azulen-8-yl)-oxazolidin-5-ylmethyl]-acetamide], the MIC against S pyogenes C203 was 1 µg/mL (≈ 2.38 µM); against H. influenzae HI3542 it was 4 µg/mL (≈ 9.54 µM); in the data set on E. coli Tol C, above 64 µg/mL; in the data set with E. faecalis MGH-2, 4 µg/mL (≈ 9.54 µM); in the data set on S. aureus UC-76 it was 4 µg/mL (≈ 9.54 µM); in the data set with M. catarrhalis BC3534, above 64 µg/mL.

As to `CC(=O)NC[C@H]1CN(c2ccc3c(c2)OCCc2cn[nH]c2-3)C(=O)O1` [Example 37, (S)—N-[3-(4,5-Dihydro-1H-6-oxa-1,2-diaza-benzo[e]azulen-8-yl)-2-oxo-oxazolidin-5-ylmethyl]-acetamide], the MIC against S pyogenes C203 was 0.5 µg/mL (≈ 1.46 µM); in the data set on H. influenzae HI3542, 8 µg/mL (≈ 23.4 µM); in the data set on E. coli Tol C, above 64 µg/mL; in the data set with E. faecalis MGH-2, 2 µg/mL (≈ 5.84 µM); in the data set with S. aureus UC-76 it was 2 µg/mL (≈ 5.84 µM). In addition, the “MIC M. catarrhalis BC3534” value with M. catarrhalis BC3534 turned out to be 4 µg/mL (≈ 11.7 µM).

As to `CC(=O)NC[C@H]1CN(c2ccc3c(c2)OCCc2cnoc2-3)C(=O)O1` [Example 38, (S)—N-[3-(4,5-Dihydro-1,6-dioxa-2-aza-benzo[e]azulen-8-yl)-2-oxo-oxazolidin-5-ylmethyl]-acetamide], the MIC in the data set with S pyogenes C203 was 0.5 µg/mL (≈ 1.46 µM); against H. influenzae HI3542 it was 4 µg/mL (≈ 11.7 µM); in the data set on E. coli Tol C, above 64 µg/mL; in the data set on E. faecalis MGH-2, 1 µg/mL (≈ 2.91 µM); against S. aureus UC-76, 1 µg/mL (≈ 2.91 µM).

Take `CC(=O)NC[C@H]1CN(c2ccc3c(c2)OCCc2cn(C)nc2-3)C(=O)O1` [Example 39, (S)—N-[3-(2-Methyl4,5-dihydro-2H-6-oxa-1,2-diaza-benzo[e]azulen-8-yl)-2-oxo-oxazolidin-5-ylmethyl]-acetamide]: the MIC was 32 µg/mL (≈ 89.8 µM) against S pyogenes C203; above 64 µg/mL with H. influenzae HI3542; above 64 µg/mL in the data set on E. coli Tol C; 32 µg/mL (≈ 89.8 µM) in the data set on E. faecalis MGH-2; above 64 µg/mL against S. aureus UC-76; above 64 µg/mL against M. catarrhalis BC3534.

On to `CC(=O)NC[C@H]1CN(c2ccc3c(c2)OCCc2cn[nH]c2-3)C(=O)O1` [drawing 124], for which, in the data set on H. influenzae HI3542, the “MIC H. influenzae HI3542” value amounted to 8 µg/mL (≈ 23.4 µM). Besides, the “MIC E. coli Tol C” value in the data set with E. coli Tol C is above 64 µg/mL. In addition, the “MIC M. catarrhalis BC3534” value with M. catarrhalis BC3534 came to 16 µg/mL (≈ 46.7 µM).

For “(S)—N-[2-Oxo-3-(2-phenethyl-4,5-dihydro-2H-6-oxa-1,2-diaza-benzo[e]azulen-8-yl)-oxazolidin-5-ylmethyl]-acetamide and (S)—N-[2-Oxo-3-(1-phenethyl-4,5-dihydro-1H-6-oxa-1,2-diaza-benzo[e]azulen-8-yl)-oxazolidin-5-ylmethyl]-acetamide [Example 42]”, the “MIC S pyogenes C203” value in the data set on S pyogenes C203 was determined as 32 µg/mL. The “MIC H. influenzae HI3542” value in the data set with H. influenzae HI3542 is above 64 µg/mL. Moreover, the “MIC E. coli Tol C” value in the data set with E. coli Tol C was above 64 µg/mL. Besides, the “MIC E. faecalis MGH-2” value against E. faecalis MGH-2 was 32 µg/mL. Also, in the data set with S. aureus UC-76, the “MIC S. aureus UC-76” value is 32 µg/mL. Also, the “MIC M. catarrhalis BC3534” value against M. catarrhalis BC3534 is above 64 µg/mL.

For the compound “(S)—N-[3-(2-Benzyl-4,5-dihydro-2H-6-oxa-1,2-diaza-benzo[e]azulen-8-yl)-2-oxo-oxazolidin-5-ylmethyl]-acetamide and (S)—N-[3-(1-Benzyl-4,5-dihydro-1H-6-oxa-1,2-diaza-benzo[e]azulen-8-yl)-2-oxo-oxazolidin-5-ylmethyl]-acetamide [Example 41]”, the “MIC S pyogenes C203” value with S pyogenes C203 stood at 32 µg/mL. Besides, the “MIC H. influenzae HI3542” value in the data set on H. influenzae HI3542 was above 64 µg/mL. Also, the “MIC E. coli Tol C” value in the data set on E. coli Tol C is above 64 µg/mL. Also, the “MIC E. faecalis MGH-2” value with E. faecalis MGH-2 is above 64 µg/mL. The “MIC S. aureus UC-76” value in the data set on S. aureus UC-76 was above 64 µg/mL. In the data set with M. catarrhalis BC3534, the “MIC M. catarrhalis BC3534” value was above 64 µg/mL.

For the compound “(S)—N-[3-(2-Ethyl-4,5-dihydro-2H-6-oxa-1,2-diaza-benzo[e]azulen-8-yl)-2-oxo-oxazolidin-5-ylmethyl]-acetamide and (S)—N-[3-(1-Ethyl-4,5-dihydro-1H-6-oxa-1,2-diaza-benzo[e]azulen-8-yl)-2-oxo-oxazolidin-5-ylmethyl]-acetamide [Example 40]”, in the data set with S pyogenes C203, the “MIC S pyogenes C203” value came out at 32 µg/mL. The “MIC H. influenzae HI3542” value in the data set with H. influenzae HI3542 was above 64 µg/mL. The “MIC E. coli Tol C” value with E. coli Tol C is above 64 µg/mL. Also, the “MIC E. faecalis MGH-2” value against E. faecalis MGH-2 is above 64 µg/mL. The “MIC S. aureus UC-76” value in the data set on S. aureus UC-76 was above 64 µg/mL. In the data set on M. catarrhalis BC3534, the “MIC M. catarrhalis BC3534” value was above 64 µg/mL.

As usually defined, the melting point is the temperature, or range, at which the solid turns liquid.
